Results taken from PubChem BioAssay (NCI).
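Five concentrations, 48 hours, 96-well plates. TGI: concentration producing complete growth inhibition.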

How the values were obtained:
Assay in all cases: NCI anticancer screen, dose series, 48 h
[1] = tested on: LOX IMVI melanoma
[2] = tested on: EKVX NSCLC
[3] = tested on: HCT-15 colon
[4] = tested on: HL-60(TB) leukemia
[5] = tested on: SK-MEL-5 melanoma
[6] = tested on: CCRF-CEM leukemia
[7] = tested on: A498 renal
[8] = tested on: SF-295 CNS
[9] = tested on: HCC-2998 colon
[10] = tested on: SN12C renal
[11] = tested on: XF 498 CNS
[12] = tested on: COLO 205 colon
[13] = tested on: KM12 colon
[14] = tested on: M14 melanoma
[15] = tested on: A549 NSCLC
[16] = tested on: CAKI-1 renal
[17] = tested on: HOP-62 NSCLC
[18] = tested on: MDA-MB-231 breast
[19] = tested on: BT-549 breast
[20] = tested on: MDA-N

| SMILES | TGI [1] [µM] | TGI [2] [µM] | TGI [3] [µM] | TGI [4] [µM] | TGI [5] [µM] | TGI [6] [µM] | TGI [7] [µM] | TGI [8] [µM] | TGI [9] [µM] | TGI [10] [µM] | TGI [11] [µM] | TGI [12] [µM] | TGI [13] [µM] | TGI [14] [µM] | TGI [15] [µM] | TGI [16] [µM] | TGI [17] [µM] | TGI [18] [µM] | TGI [19] [µM] | TGI [20] [µM] |
| --- | --- | --- | --- | --- | --- | --- | --- | --- | --- | --- | --- | --- | --- | --- | --- | --- | --- | --- | --- | --- |
| O=Cc1ccccc1COC(=O)c1cc(C(=O)OCc2ccccc2C=O)c(C(=O)OCc2ccccc2C=O)cc1C(=O)OCc1ccccc1C=O | > 100 | > 100 | > 100 | > 100 | > 100 | > 100 | > 100 | > 100 | > 100 | > 100 | > 100 | > 100 | > 100 | > 100 | > 100 | > 100 |  |  |  |  |
| CC1=CCC(O)C=CC(C)C(O)C(C)C=C(C)C(=O)c2c(O)c(C)cc3c2C(=O)C(N)=C(NC(=O)/C=C\C=C/C=CC(C)C(O)CC1=O)C3=O (stereo not given) | > 100 | > 100 | > 100 | 38.6 | > 100 | > 100 | > 100 | > 100 | > 100 | > 100 | > 100 | > 100 | > 100 | > 100 | > 100 | > 100 | > 100 |  |  |  |
| CCOC(=O)c1cc2c3ccn(Cc4ccccc4)c3c3c(C)[nH]oc3c2n1 | > 100 | > 100 | > 100 | > 100 | > 100 | > 100 | > 100 | > 100 | > 100 | > 100 |  | > 100 | > 100 | > 100 | > 100 | > 100 | > 100 | > 100 | > 100 | > 100 |
| O=C1c2ccsc2C(=O)c2sc(CO)cc21 | 0.0491 | 2.39 | 0.102 | 3.72 | 0.0163 | 1.35 | 0.792 | 0.951 | 5.33 | 0.0818 | 1.14 | 1.53 | 3.08 | < 0.0154 | 0.125 | 9.69 | 0.325 | 0.48 | 0.0352 | < 0.0177 |
| CCCCCCCCCCCC(=O)OCC(C[As](=O)(O)O)OC(=O)CCCCCCCCCCC (stereo not given) | 18.3 | 21 | 25.5 | > 25 | 3.64 | 30.8 | 17.7 | 26.7 | 14 | 8.27 | 7.28 | 25.4 | 21.6 | 4.48 | 25.8 | 21.7 | 78 | 16 | 23.3 | 13 |
| Cc1ccc2c3c1O[C@H]1c4[nH]c5ccccc5c4C[C@@]4(O)[C@@H](C2)N(CC2CC2)CC[C@]314 | 33.1 | 32.9 | 38.1 | 22.4 | 27.8 | 24.6 | 31.8 | 31.1 | 12.5 | 29.1 |  | 30.8 | 32.5 | 32.4 | 29.7 | 30.4 | 33.3 | 35.6 | 35.7 | 30.5 |
| COC(=O)CC1N=C(NC#N)N(CCc2c[nH]c3ccccc23)C1=O (stereo not given) | > 100 | > 100 | > 100 | > 100 | > 100 | > 100 |  | > 100 | > 100 | > 100 | > 100 | > 100 | > 100 | > 100 | > 100 |  | > 100 |  |  |  |
| CCN(CC)C1CC(O[C@H]2C[C@](O)(C(=O)CO)Cc3c(O)c4c(c(O)c32)C(=O)c2c(OC)cccc2C4=O)OC(C)C1O (stereo not given in full) | 0.439 | 0.336 | 3.54 | 0.533 | 0.124 | 1.41 | 0.0798 | 0.468 | 0.29 | 1.25 | 0.223 | 0.193 | 0.457 | 0.31 | 0.394 |  | 0.455 |  |  |  |
| CC1(C)OC(=O)N(c2ccccc2)C12C=Cc1cc([N+](=O)[O-])ccc1O2 (stereo not given) | > 100 | 98.7 | > 100 | 63.7 | > 100 | 99 | > 100 | > 100 | > 100 | > 100 |  | > 100 | > 100 | > 100 | > 100 | > 100 | > 100 | 80.4 | > 100 | 50.8 |
| CCOC(=O)C1C(=O)CC1(C)C (stereo not given) | > 10 | > 10 | > 10 | > 10 | > 10 | > 10 | > 10 | > 10 | > 10 | > 10 |  | > 10 | > 10 | > 10 | > 10 | > 10 | > 10 | > 10 | > 10 | > 10 |
| C[Si](C)(C)OC1CC(=O)OC1n1cc(F)c(=O)[nH]c1=O (stereo not given) | 32.5 | > 100 | > 54 | > 100 | > 100 | > 96.4 | > 100 | > 100 | > 100 | > 100 | > 100 | > 100 | > 100 | > 100 | > 100 | > 100 | > 100 |  |  |  |
| CC(=O)[C@@H](C)C(=O)N1C(=O)OC[C@@]12[C@@H]1CC[C@@H](C1)C2(C)C | > 100 | > 100 | > 100 | > 100 | > 100 | > 100 | > 100 | > 100 | > 100 | > 100 |  | > 100 | > 100 | > 100 | > 100 | > 100 | > 100 | > 100 | > 100 | > 100 |
| O=C(N/N=C\C=C\c1ccc([N+](=O)[O-])o1)C(=O)N/N=C\C=C\c1ccc([N+](=O)[O-])o1 | > 100 | > 100 | > 100 | 87.1 | > 100 | 3.55 | > 100 | > 100 | > 100 | > 100 |  | > 100 | > 100 | > 100 | > 100 | > 100 | > 100 | > 100 | > 100 | > 100 |
| Cc1ccc(S(=O)(=O)N/N=C2/CCCOC2)cc1 | > 100 | > 100 | > 100 | > 100 | > 100 | > 100 | > 100 | > 100 | > 100 | > 100 |  | > 100 | > 100 | > 100 | > 100 | > 100 | > 100 | > 100 | > 100 | > 100 |
| CC(=O)O[C@H]1C(=O)[C@@]2(C)C(C(OC(=O)c3ccccc3)[C@]3(O)CC(OC(=O)C(O)C(NC(=O)c4ccc(C(F)(F)F)cc4)c4ccccc4)C(C)=C1C3(C)C)[C@]1(OC(C)=O)CO[C@@H]1C[C@@H]2O (stereo not given in full) | 6.43 |  | 13.5 | > 37.5 | 3.8 | 15.5 | > 37.5 | 1.79 | 0.387 | 11.6 | 3.09 | 0.153 | 0.202 | 0.485 | > 37.5 | > 37.5 | 0.506 |  |  |  |
| COc1cc2cc3c4cc(OC)c(OC)cc4cc[n+]3c(C)c2cc1OC (tested in a mixture with another compound) | > 100 | > 100 | > 100 | > 100 | > 100 | > 100 | > 100 | > 100 | > 100 | > 100 | > 100 | > 87.9 | > 100 | > 100 | > 100 | > 100 | > 100 | > 100 | > 100 | > 100 |
